Experimental data published in patent US20010053797A1 (priority 1998, published 2001).
“Also recorded” adds a separate entry of the source. Read-outs that look alike come from different tables or passages of the source.

Tests used:
[1] = tested on: murine cortical cell cultures (neurons), NMDA receptor; assay: NMDA neurotoxicity in murine cortical cell cultures, medium LDH; assay type: cell-based, Swiss Webster mice; conditions: for LDH release: scaled to 300 μM NMDA (=100); for effect on potentiation of NMDA neurotoxicity by mercaptoethanol: NMDA plus 1 mM mercaptoethanol plus equimolar compound; for effect on NMDA neurotoxicity (neuronal death, medium LDH): compound added with low micromolar NMDA, 20-25 h; for effect on potentiation of NMDA neurotoxicity by GSH: NMDA plus GSH plus compound
Method: Cultures were incubated in 5% CO2 at 37° C.
Experiments were conducted at 13-15 days in vitro.

[2] = tested on: murine cortical cell cultures (neurons), AMPA and kainate receptors; conditions: listed as reduced glutathione
Method: (§1) After halothane anesthesia and cervical dislocation, cortical hemispheres were removed and incubated in 0.075% (wt/vol) acetylated trypsin (Sigma T-6763) for 1 h at 37° C. Tissue was dissociated by multiple passages through a narrow bore (flamed) Pasteur pipette, and the cell suspension was plated on confluent glial cultures at a density of 2.25-2.5 hemispheres per 24 well plate.
(§2) Experiments were conducted at 13-15 days in vitro. Cultures were exposed to excitatory amino acids in serum-free MEM containing 10 mM glucose.
Since astrocytes are not vulnerable to excitotoxic injury in this culture system (Choi D. W., Maulucci-Gedde M. and Kriegstein A. R. Glutamate neurotoxicity in cortical cell culture. J Neurosci 7: 357-368, 1987), the contribution of astrocytic LDH to the LDH signal is negligible.
Differences between groups were assessed with the Tukey-Kramer or Dunnett post hoc tests.

native NMDA receptor = target: T1, native NMDA receptor (Rattus norvegicus, UniProt P35439); conditions: cited from earlier work
T1 construct: host or cells: cultured forebrain, cortical or retinal neurons (endogenous receptor)

[3] = tested on: NMDA receptor-mediated neurotoxicity; conditions: cited from earlier work
[4] = tested on: NR1-NR2B, -NR2C, or -NR2D receptors; conditions: millimolar concentrations of GSH; cited from earlier work
[5] = tested on: cultured cerebellar granule cells; conditions: cited from earlier work
[6] = tested on: cortical neurons and glia; assay: Chemical hypoxia (azide) and glucose deprivation in cortical cell cultures, medium LDH; assay type: cell-based, Swiss Webster mice; conditions: for effect on azide neurotoxicity in glucose-free buffer (neuronal death): 3 mM azide 30 min with compound, LDH 21-25 h later; for effect on potentiation of azide toxicity/glucose deprivation by GSH: 3 mM azide plus 100 μM GSH plus compound; for effect on potentiation of azide toxicity/glucose deprivation by GSH / effect on potentiation of azide toxicity by mercaptoethanol: 30 min; for effect on potentiation of azide toxicity by mercaptoethanol: 3 mM azide plus 100 μM mercaptoethanol plus compound
Method: Primary cultures containing both cortical neurons and glia were prepared from gravid Swiss Webster mice as previously described. (Regan , R. F. and Choi, D. W., The effect of NMDA, AMPA/kainate, and calcium channel antagonists on traumatic cortical neuronal injury in culture, Brain Res, 633: 236-242, 1994). Plating medium consisted of Eagle's minimal essential medium (MEM), 5% equine serum, 5% fetal bovine serum, 2 mM glutamine, and 23 mM glucose. Cultures were incubated in 5% CO2 at 37° C. Two-thirds of the culture medium was exchanged twice weekly with MEM containing 10% equine serum, 2 mM glutamine, and 23 mM glucose. Glial cell division was inhibited at 4-7 days in vitro with 10^−5 M cytosine arabinoside.
Chemical hypoxia was induced with 3 mM azide, which unlike cyanide is not volatile and has little effect on copper-zinc and manganese superoxide dismutases at low millimolar concentrations. (Misra, H. P. and Fridovich, I., Inhibition of superoxide dismutases by azide, Arch Biochem Biophys 189: 317-322, 1978). Experiments were conducted at 13-16 days in vitro in a glucose-free buffer containing 116 mM NaCl, 5.4 mM KCl, 1.8 mM CaCl2, 1 mM NaH2PO4, 26.2 mM NaHCO3, 0.8 mM MgSO4, and amino acids (MEM amino acids, Sigma Chemical Co., St. Louis, Mo., U.S.A.). After incubation for 30-90 min at 37° C. in 5% CO2, cultures were washed into MEM containing 10 mM glucose and were returned to the incubator.
Cell death was estimated 21-25 h after azide exposure by inspection under phase-contrast microscopy, and was quantified by assaying lactate dehydrogenase (LDH) activity in the medium, as previously described. (Regan, R. F. and Panter, S. S., Traumatic neuronal injury in cortical cell culture is attenuated by 21-aminosteroids, Brain Res, 682: 144-150, 1995). Medium LDH in this culture system is an accurate marker of neuronal death that correlates well with cell counts. (Koh, J. Y. and Choi, D. W., Vulnerability of cultured cortical neurons to damage by excitotoxins: Differential susceptibility of neurons containing NADPH-diaphorase, J Neurosci 8: 2153-2163, 1988). […] (Koh, J. Y. and Choi, D. W., 1988). The LDH activity in the medium of sister cultures exposed to sham wash alone was subtracted from all values to obtain the LDH signal associated specifically with neurotoxin exposure.
Data were analyzed by one-way analysis of variance. Differences between groups and a single mean were assessed with the Dunnett multiple comparisons test; when groups were compared to more than one mean, the Tukey-Kramer post hoc test was used.

GSH binding sites = conditions: cited from earlier work
[7] = tested on: murine cortical cell cultures; conditions: millimolar concentrations, 20-25 h, 0 μM NMDA
Method: as §1, §2

cortical cell culture = conditions: low micromolar concentrations; cited from earlier work

N[C@@H](CCC(=O)N[C@@H](CS)C(=O)NCC(=O)O)C(=O)O [GSH, glutathione]
LDH release ([1]; 8 μM NMDA plus GSH): 61.09±3.83% | effect on neuronal death at high NMDA concentration ([1]; 24 μM NMDA): not altered | effect on potentiation of NMDA neurotoxicity by mercaptoethanol [1]: did not further increase neuronal death; also recorded: tended to inhibit the effect of mercaptoethanol; also recorded: did not further enhance NMDA neurotoxicity | effect on potentiation of NMDA neurotoxicity by mercaptoethanol ([1]; listed as reduced glutathione): did not further increase NMDA-induced neuronal death | effect on NMDA neurotoxicity (neuronal death, medium LDH) [1]: selectively potentiates NMDA neurotoxicity; also recorded: markedly potentiated; also recorded: specifically potentiated NMDA neurotoxicity; also recorded: selectively potentiate | effect on NMDA neurotoxicity (neuronal death, medium LDH) ([1]; listed as glutathione): marked potentiation | effect on NMDA neurotoxicity (neuronal death, medium LDH) ([1]; listed as reduced glutathione): markedly enhanced; also recorded: markedly enhance the vulnerability | effect on neurotoxicity of kainic acid [2]: unaffected | effect on native NMDA receptor responses (native NMDA receptor): no effect | effect on NMDA neurotoxicity [3]: attenuated NMDA neurotoxicity | effect on responses to glutamate (whole cell currents) [4]: not | basal 45Ca2+ influx [5]: did not alter | glutamate and NMDA-induced calcium influx [5]: increased

O[C@H](CS)[C@H](O)CS (racemic) [dithiothreitol]
effect on azide neurotoxicity in glucose-free buffer (neuronal death) [6]: concentration-toxicity profile that was similar to GSH

CN[C@H](CC(=O)O)C(=O)O [NMDA, N-methyl-D-aspartate]
neuronal death by NMDA ([1]; 24 μM NMDA): widespread neuronal death | neuronal death by NMDA ([1]; 300 μM NMDA, sister cultures (=100)): essentially complete neuronal death without injuring glia

N[C@@H](CCC(=O)O)C(=O)O [glutamate]
effect on glutathione binding (GSH binding sites): not

oxidized glutathione [GSSG]
effect on potentiation of NMDA neurotoxicity by (sulfhydryl) reducing agents [1]: antagonized | effect on potentiation of NMDA neurotoxicity by mercaptoethanol [1]: completely blocked; also recorded: blocked the effect of mercaptoethanol | effect on potentiation of NMDA neurotoxicity by mercaptoethanol ([1]; listed as oxidized glutathione): blocked | effect on NMDA neurotoxicity (neuronal death, medium LDH) [1]: no significant effect; also recorded: did not attenuate NMDA neurotoxicity per se | effect on azide neurotoxicity in glucose-free buffer (neuronal death) [6]: ineffective; also recorded: not increased | effect on potentiation of azide toxicity/glucose deprivation by GSH [6]: most neurons have survived; also recorded: attenuates | effect on potentiation of azide toxicity by mercaptoethanol [6]: attenuates | effect on neuronal death induced by prolonged azide exposure ([6]; azide 60-90 min in the absence of GSH): no significant effect | neuroprotection against azide plus GSH or mercaptoethanol ([6]; compound at 1-3 mM): robust effect | neuroprotection against azide plus GSH or mercaptoethanol ([6]; equimolar compound (100 μM)): weak and somewhat variable neuroprotection | toxicity of compound alone [7]: nontoxic | effect on native NMDA receptor responses (native NMDA receptor): inhibitory | effect on NMDA neurotoxicity [3]: attenuated NMDA neurotoxicity

CCCCCCSC[C@H](NC(=O)CC[C@H](N)C(=O)O)C(=O)NCC(=O)O [SHG, S-hexylglutathione]
effect on potentiation of NMDA neurotoxicity by (sulfhydryl) reducing agents [1]: antagonized | effect on potentiation of NMDA neurotoxicity by mercaptoethanol [1]: blocked the effect of mercaptoethanol | effect on potentiation of NMDA neurotoxicity by mercaptoethanol ([1]; listed as S-hexylglutathione): completely blocked | effect on potentiation of NMDA neurotoxicity by GSH [1]: completely blocked | effect on potentiation of NMDA neurotoxicity by GSH ([1]; listed as S-hexylglutathione): completely blocked; also recorded: antagonized the effect of GSH | effect on NMDA neurotoxicity (neuronal death, medium LDH) [1]: no significant effect; also recorded: did not attenuate NMDA neurotoxicity per se | effect on NMDA neurotoxicity (neuronal death, medium LDH) ([1]; listed as S-hexylglutathione): inactive per se | effect on potentiation of NMDA neurotoxicity by (sulfhydryl) reducing agents ([1]; listed as S-hexylglutathione): blocked the potentiation | effect on azide neurotoxicity in glucose-free buffer (neuronal death) [6]: ineffective | effect on azide neurotoxicity in glucose-free buffer (neuronal death) ([6]; listed as S-hexylglutathione): not increased | effect on potentiation of azide toxicity/glucose deprivation by GSH [6]: attenuates | effect on potentiation of azide toxicity by mercaptoethanol [6]: attenuates | neuroprotection against azide plus GSH or mercaptoethanol ([6]; compound at 1-3 mM): decreasing neuronal death moderately | effect on glutathione binding (GSH binding sites; listed as S-hexylglutathione): displace glutathione binding; also recorded: selectively inhibited

CCN(CC)c1ccc(N(CC)CC)c(N2CCN(CC(=O)[C@H]3[C@H](C)C[C@H]4[C@@H]5CCC6=CC(=O)C=C[C@]6(C)C5=CC[C@@]43C)CC2)n1.Cl [U74500A]
effect on potentiation of NMDA neurotoxicity by GSH [1]: GSH also potentiated injury in the presence | effect on hemoglobin toxicity (cortical cell culture): blocks hemoglobin toxicity

N[C@@H](CS)C(=O)O [cysteine]
effect on glutathione binding (GSH binding sites): selectively inhibited

[N-]=[N+]=[N-] [azide]
toxicity of azide alone ([6]; 3 mM azide in glucose-free medium, 30 minutes): tolerated by most neurons

C[C@]12N[C@H](Cc3ccccc31)c1ccccc12 [MK-801]
LDH release ([1]; 8 μM NMDA plus GSH plus MK-801): −1.24±1.58% | cell death due to 8 μM NMDA plus GSH ([1]; 8 μM NMDA plus GSH plus compound): completely blocked | effect on potentiation of azide toxicity/glucose deprivation by GSH [6]: blocked

CSC[C@H](NC(=O)CC[C@H](N)C(=O)O)C(=O)NCC(=O)O [SMG, S-methylglutathione]
effect on potentiation of NMDA neurotoxicity by (sulfhydryl) reducing agents [1]: blocked the potentiation | effect on potentiation of NMDA neurotoxicity by GSH [1]: blocks the potentiation; also recorded: completely blocked; also recorded: antagonized the effect of GSH | effect on NMDA neurotoxicity (neuronal death, medium LDH) [1]: inactive per se | effect on glutathione binding (GSH binding sites): displace glutathione binding

NS(=O)(=O)c1cccc2c1c([N+](=O)[O-])cc1[nH]c(=O)c(=O)[nH]c12 [NBQX, 1,2,3,4-tetrahydro-6-nitro-2,3-dioxo-benzo[f]quinoxaline-7-sulfonamide]
effect on potentiation of azide toxicity/glucose deprivation by GSH [6]: not and no effect

B1: catalase: catalase, added at a concentration sufficient to inhibit the neurotoxicity of the pro-oxidant hemoglobin (protein, UniProt P00432 2-527, looked up)
Catalase: ADNRDPASDQMKHWKEQRAAQKPDVLTTGGGNPVGDKLNSLTVGPRGPLLVQDVVFTDEMAHFDRERIPERVVHAKGAGAFGYFEVTHDITRYSKAKVFEHIGKRTPIAVRFSTVAGESGSADTVRDPRGFAVKFYTEDGNWDLVGNNTPIFFIRDALLFPSFIHSQKRNPQTHLKDPDMVWDFWSLRPESLHQVSFLFSDRGIPDGHRHMNGYGSHTFKLVNANGEAVYCKFHYKTDQGIKNLSVEDAARLAHEDPDYGLRDLFNAIATGNYPSWTLYIQVMTFSEAEIFPFNPFDLTKVWPHGDYPLIPVGKLVLNRNPVNYFAEVEQLAFDPSNMPPGIEPSPDKMLQGRLFAYPDTHRHRLGPNYLQIPVNCPYRARVANYQRDGPMCMMDNQGGAPNYYPNSFSAPEHQPSALEHRTHFSGDVQRFNSANDDNVTQVRTFYLKVLNEEQRKRLCENIAGHLKDAQLFIQKKAVKNFSDVHPEYGSRIQALLDKYNEEKPKNAVHTYVQHGSHLSAREKANL
effect on potentiation of NMDA neurotoxicity by GSH [1]: No effect was observed
